Results: US20260240847A1, “COMPOUNDS WITH ANTI-TUMOR ACTIVITY AGAINST CANCER CELLS BEARING TYROSINE KINASE INHIBITOR RESISTANT EGFR MUTATIONS” (BOARD OF REGENTS, THE UNIVERSITY OF TEXAS SYSTEM, priority 2019, published 2026)
pIC50: −log10 of the molar value.

Tests used:
Test in all cases: Ba/F3 cell viability, Cell Titer Glo
EGFR S768dupSVD = EGFR S768dupSVD (Homo sapiens, UniProt P00533, DUP768-770); conditions: read-out: IC50 Values; Ba/F3 cells expressing EGFR S768dupSVD, 72 hours
Procedure: (§1) Cell viability was determined by the Cell Titer Glo assay.
(§2) Briefly, stable Ba/F3 cell lines were generated by retroviral transduction of Ba/F3 cell line for 12 hours. […] Three days after transduction, 2 μg/ml puromycin (Invitrogen) was added to the RPMI media. Cell lines were then grown in the absence of IL-3 for two weeks and cell viability was assessed every three days using the Cell Titer Glo assay (Progema).
(§3) Briefly, 2000-3000 cells per well were plated in 384-well plates (Greiner Bio-One) in technical triplicate. Cells were treated with seven different concentrations of tyrosine kinase inhibitors or vehicle alone at a final volume of 40 μL per well. After 3 days, 11 μL of Cell Titer Glo was added to each well. Plates were shaken for 15 minutes, and bioluminescence was determined using a FLUOstar OPTIMA multi-mode micro-plate reader (BMG LABTECH). Bioluminescence values were normalized to DMSO treated cells, and normalized values were plotted in GraphPad Prism using non-linear regression fit to normalized data with a variable slope.

EGFR L833F = EGFR L833F (Homo sapiens, UniProt P00533, L833F); conditions: read-out: IC50 Values; Ba/F3 cells expressing EGFR L833F, 72 hours
Procedure: as §1, §2, §3

EGFR T725M = EGFR T725M (Homo sapiens, UniProt P00533, T725M); conditions: read-out: IC50 Values; Ba/F3 cells expressing EGFR T725M, 72 hours
Procedure: as §1, §2, §3

EGFR L858R G796S = EGFR L858R G796S (Homo sapiens, UniProt P00533, G796S/L858R); conditions: read-out: IC50 Values; Ba/F3 cells expressing EGFR L858R G796S, 72 hours
Procedure: (§4) The transforming capability of the mutations was then evaluated by sustained cell viability following IL-3 deprivation. Activating EGFR mutant Ba/F3 cells were then screened against EGFR TKIs. Cell viability was determined by the Cell Titer Glo assay.
(§5) Ba/F3 cells expressing acquired atypical mutations spanning exons 18-21 were treated with inhibitors for 72 hours. […] Briefly, stable Ba/F3 cell lines were generated by retroviral transduction of Ba/F3 cell line for 12 hours. […] Three days after transduction, 2 μg/ml puromycin (Invitrogen) was added to the RPMI media. Cell lines were then grown in the absence of IL-3 for two weeks and cell viability was assessed every three days using the Cell Titer Glo assay (Progema).
as §3

EGFR Ex19del/L792H = EGFR Ex19del/L792H (Homo sapiens, UniProt P00533, DEL746-750/L792H); conditions: read-out: IC50 Values; Ba/F3 cells expressing EGFR Ex19del/L792H, 72 hours
Procedure: as §4, §5, §3

EGFR G724S T790M = EGFR G724S T790M (Homo sapiens, UniProt P00533, G724S/T790M); conditions: read-out: IC50 Values; Ba/F3 cells expressing EGFR G724S T790M, 72 hours
Procedure: as §1, §2, §3

EGFR K754E = EGFR K754E (Homo sapiens, UniProt P00533, K754E); conditions: read-out: IC50 Values; Ba/F3 cells expressing EGFR K754E, 72 hours
Procedure: as §1, §2, §3

EGFR L858R/T790M = EGFR L858R/T790M (Homo sapiens, UniProt P00533, L858R/T790M); conditions: read-out: IC50 Values; Ba/F3 cells expressing EGFR L858R/T790M, 72 hours
Procedure: as §1, §2, §3

EGFR L747P = EGFR L747P (Homo sapiens, UniProt P00533, L747P); conditions: read-out: IC50 Values; Ba/F3 cells expressing EGFR L747P, 72 hours
Procedure: as §1, §2, §3

EGFR Ex19del G724S = EGFR Ex19del G724S (Homo sapiens, UniProt P00533, DEL746-750/G724S); conditions: read-out: IC50 Values; Ba/F3 cells expressing EGFR Ex19del G724S, 72 hours
Procedure: as §4, §5, §3

EGFR Ex19del T790M C797S = EGFR Ex19del T790M C797S (Homo sapiens, UniProt P00533, C797S/DEL746-750/T790M); conditions: read-out: IC50 Values; Ba/F3 cells expressing EGFR Ex19del T790M C797S, 72 hours
Procedure: as §1, §2, §3

EGFR Ex19delT854l = EGFR Ex19delT854l (Homo sapiens, UniProt P00533, DEL746-750/T854I); conditions: read-out: IC50 Values; Ba/F3 cells expressing EGFR Ex19delT854l, 72 hours
Procedure: as §4, §5, §3

EGFR A767insASV = EGFR A767insASV (Homo sapiens, UniProt P00533, DUP767-769); conditions: read-out: IC50 Values; Ba/F3 cells expressing EGFR A767insASV, 72 hours
Procedure: as §1, §2, §3

EGFR G719A = EGFR G719A (Homo sapiens, UniProt P00533, G719A); conditions: read-out: IC50 Values; Ba/F3 cells expressing EGFR G719A, 72 hours
Procedure: as §1, §3

EGFR G719A T790M = EGFR G719A T790M (Homo sapiens, UniProt P00533, G719A/T790M); conditions: read-out: IC50 Values; Ba/F3 cells expressing EGFR G719A T790M, 72 hours
Procedure: as §1, §3

EGFR L858R T790M L792H = EGFR L858R T790M L792H (Homo sapiens, UniProt P00533, L792H/L858R/T790M); conditions: read-out: IC50 Values; Ba/F3 cells expressing EGFR L858R T790M L792H, 72 hours
Procedure: as §1, §2, §3

EGFR L858R/C797S = EGFR L858R/C797S (Homo sapiens, UniProt P00533, C797S/L858R); conditions: read-out: IC50 Values; Ba/F3 cells expressing EGFR L858R/C797S, 72 hours
Procedure: as §4, §5, §3

EGFR L858R S784F = EGFR L858R S784F (Homo sapiens, UniProt P00533, L858R/S784F); conditions: read-out: IC50 Values; Ba/F3 cells expressing EGFR L858R S784F, 72 hours
Procedure: as §4, §5, §3

EGFR Ex19delT790M = EGFR Ex19delT790M (Homo sapiens, UniProt P00533, DEL746-750/T790M); conditions: read-out: IC50 Values; Ba/F3 cells expressing EGFR Ex19delT790M, 72 hours
Procedure: as §1, §2, §3

EGFR L718V = EGFR L718V (Homo sapiens, UniProt P00533, L718V); conditions: read-out: IC50 Values; Ba/F3 cells expressing EGFR L718V, 72 hours
Procedure: as §1, §2, §3

## C=CC(=O)N1CC[C@@H](Oc2nc(Nc3ccc(N4CCC(N5CCN(C)CC5)CC4)cc3)c(C(N)=O)nc2CC)C1 [Naquotinib]
EGFR S768dupSVD
  pIC50: 6.82
EGFR L833F
  pIC50: 6.39
EGFR T725M
  pIC50: 7.11
EGFR L858R G796S
  pIC50: 6.37
EGFR Ex19del/L792H
  pIC50: 8.40
EGFR G724S T790M
  pIC50: 7.73
EGFR K754E
  pIC50: 7.18
EGFR L858R/T790M
  pIC50: 8.73
EGFR L747P
  pIC50: 6.33
EGFR Ex19del G724S
  pIC50: 6.16
EGFR Ex19del T790M C797S
  pIC50: 5.71
EGFR Ex19delT854l
  pIC50: 6.95
EGFR A767insASV
  pIC50: 6.66
EGFR G719A
  pIC50: 7.74
EGFR G719A T790M
  pIC50: 7.93
EGFR L858R T790M L792H
  pIC50: 6.20
EGFR L858R/C797S
  pIC50: 6.15
EGFR L858R S784F
  pIC50: 6.45
EGFR Ex19delT790M
  pIC50: 8.85
EGFR L718V
  pIC50: 7.11
